Reference: doi:10.1101/2021.02.21.432137v1 (biorxiv, 2021)

How the values were obtained:
NUAK1 = target: T1, NUAK1 (Homo sapiens, UniProt O60285); details: binder
T1 sequence (O60285 1-661): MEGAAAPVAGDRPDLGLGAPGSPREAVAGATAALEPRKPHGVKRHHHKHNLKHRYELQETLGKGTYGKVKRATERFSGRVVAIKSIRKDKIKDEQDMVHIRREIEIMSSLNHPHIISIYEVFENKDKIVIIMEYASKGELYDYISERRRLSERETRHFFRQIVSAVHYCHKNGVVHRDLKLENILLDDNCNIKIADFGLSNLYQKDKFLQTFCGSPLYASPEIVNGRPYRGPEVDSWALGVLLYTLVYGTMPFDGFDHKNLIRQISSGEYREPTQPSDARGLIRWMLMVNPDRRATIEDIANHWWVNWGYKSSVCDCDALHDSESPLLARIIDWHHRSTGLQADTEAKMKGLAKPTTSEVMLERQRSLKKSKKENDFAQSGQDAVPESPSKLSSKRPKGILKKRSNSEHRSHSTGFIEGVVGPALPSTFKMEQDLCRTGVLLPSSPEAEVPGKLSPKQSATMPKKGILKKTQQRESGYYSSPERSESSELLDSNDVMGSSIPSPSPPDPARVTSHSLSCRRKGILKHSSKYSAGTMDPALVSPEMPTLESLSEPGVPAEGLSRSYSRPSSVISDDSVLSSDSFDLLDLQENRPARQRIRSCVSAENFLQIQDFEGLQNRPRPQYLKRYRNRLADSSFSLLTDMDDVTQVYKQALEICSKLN

MAP3K15 = target: T2, MAP3K15 (Homo sapiens, UniProt Q6ZN16); details: binder
T2 sequence (Q6ZN16 1-1313): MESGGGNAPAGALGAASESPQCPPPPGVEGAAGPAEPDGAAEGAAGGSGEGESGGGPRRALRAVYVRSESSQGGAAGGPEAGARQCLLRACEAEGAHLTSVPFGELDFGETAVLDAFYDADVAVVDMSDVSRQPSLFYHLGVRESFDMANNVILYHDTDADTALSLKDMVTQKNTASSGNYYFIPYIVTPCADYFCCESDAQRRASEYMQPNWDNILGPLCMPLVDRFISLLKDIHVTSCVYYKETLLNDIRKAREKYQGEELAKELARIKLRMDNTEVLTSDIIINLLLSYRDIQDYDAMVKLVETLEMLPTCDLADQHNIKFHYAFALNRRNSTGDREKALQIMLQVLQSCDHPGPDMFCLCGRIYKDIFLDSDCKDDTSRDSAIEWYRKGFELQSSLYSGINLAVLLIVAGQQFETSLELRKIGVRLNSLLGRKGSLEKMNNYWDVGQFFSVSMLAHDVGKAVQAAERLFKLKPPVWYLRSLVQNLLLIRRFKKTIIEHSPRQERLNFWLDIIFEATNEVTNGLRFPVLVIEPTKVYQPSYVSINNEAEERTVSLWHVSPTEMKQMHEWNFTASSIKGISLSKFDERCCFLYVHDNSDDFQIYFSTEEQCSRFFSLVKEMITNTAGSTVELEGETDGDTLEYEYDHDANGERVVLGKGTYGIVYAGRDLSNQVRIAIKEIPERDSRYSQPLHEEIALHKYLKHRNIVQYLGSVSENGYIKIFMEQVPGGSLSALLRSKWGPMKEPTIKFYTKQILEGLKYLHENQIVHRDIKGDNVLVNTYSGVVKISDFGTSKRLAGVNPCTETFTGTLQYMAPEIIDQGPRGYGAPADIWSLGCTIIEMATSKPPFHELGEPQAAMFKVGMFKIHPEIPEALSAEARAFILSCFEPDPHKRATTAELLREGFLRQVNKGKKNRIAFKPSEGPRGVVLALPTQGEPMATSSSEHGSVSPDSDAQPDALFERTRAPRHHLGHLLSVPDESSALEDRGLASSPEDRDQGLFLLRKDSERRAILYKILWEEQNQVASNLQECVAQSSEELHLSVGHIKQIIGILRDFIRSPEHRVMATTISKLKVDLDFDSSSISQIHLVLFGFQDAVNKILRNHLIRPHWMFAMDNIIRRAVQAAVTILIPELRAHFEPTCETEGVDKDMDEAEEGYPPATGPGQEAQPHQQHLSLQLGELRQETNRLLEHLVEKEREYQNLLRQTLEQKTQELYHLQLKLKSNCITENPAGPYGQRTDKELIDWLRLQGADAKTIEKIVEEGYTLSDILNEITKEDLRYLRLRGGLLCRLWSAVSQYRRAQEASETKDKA

C[C@H](NC(=O)c1c[nH]c2ncc(C3CC3)nc12)C(C)(C)C [A1, UNC-BE4-017]
Compound A1 PoC (NUAK1): 4.1%
Compound A1 PoC (MAP3K15): 0%
